Broadly, the Ki is the dissociation constant of the complex between target and ligand, obtained from inhibition or displacement. A higher Ki goes with weaker binding.

52 compounds from patent US20050277645A1, “Sleep inducing compounds and methods relating thereto” (Neurocrine Biosciences, Inc., priority 2004, published 2005) can be followed below.

In this assay the target is T1, human H1 receptor (Homo sapiens, UniProt P35367).
T1 construct: expressed in transfected cells; host or cells: CHO cells (crude membranes)
T1 sequence (P35367 whole entry): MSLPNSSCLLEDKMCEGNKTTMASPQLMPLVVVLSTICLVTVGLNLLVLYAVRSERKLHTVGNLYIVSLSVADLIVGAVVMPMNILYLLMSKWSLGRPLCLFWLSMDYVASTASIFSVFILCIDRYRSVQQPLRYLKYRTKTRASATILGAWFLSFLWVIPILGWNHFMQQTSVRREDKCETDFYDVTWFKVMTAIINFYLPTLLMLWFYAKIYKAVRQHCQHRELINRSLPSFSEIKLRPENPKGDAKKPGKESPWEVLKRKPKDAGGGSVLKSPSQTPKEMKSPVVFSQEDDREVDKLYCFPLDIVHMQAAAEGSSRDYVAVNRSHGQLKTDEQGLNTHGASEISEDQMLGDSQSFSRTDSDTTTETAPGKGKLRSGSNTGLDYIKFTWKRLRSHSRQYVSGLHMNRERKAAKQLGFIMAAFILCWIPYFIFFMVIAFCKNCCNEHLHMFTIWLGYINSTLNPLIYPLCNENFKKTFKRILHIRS
The assay is described as follows: Human histamine H1 receptor binding assay. The conditions noted are these: competition with 1.5 nM [pyridinyl-5-3H]Pyrilamine, crude membranes of CHO cells transfected with human H1 receptor; Ki from IC50 by Cheng-Prusoff. As to the method:
Compounds of the present invention may be evaluated for binding to the histamine H1 receptor by a standard binding assay. […] Non-specific binding is determined in the presence of excess (1 μM) doxepin. Bound and free ligand are separated by rapid vacuum filtration using a Packard 96-well cell harvester onto UniFilter GF/C filter plates (PerkinElmer) that has been pretreated with 1% polyethyleneimine. The filter plates are then washed with 600 μl phosphate buffered saline containing 0.01% (v/v) Triton-X100. Bound radioligand is determined by scintillation counting using a TopCount-NXT (Packard). Binding data is analyzed by nonlinear, least-squares curve fitting algorithms using GraphPad Prism (GraphPad Software, Inc. San Diego, Calif.) or ActivityBase (IDBS, Guildford, Surrey, UK).

`CC(C1=C(CCN(C)C)Cc2ccccc21)c1nnc(-c2ccccc2)o1` (stereo not shown) [8-2]: the inhibitory constant (Ki) was no more than 250 nM.

Turning to `COc1ccc2c(c1)CC(CCN(C)C)=C2Cc1cccnn1` [4-42], the Ki was no more than 250 nM. As for `COCC(C)C1=C(CCN(C)C)Cc2ccccc21` (stereo not shown) [6-2], the figure is no more than 250 nM; as for `COc1ccc2c(c1)C(C(C)c1nccs1)=C(CCN(C)C)C2` (single isomer, unassigned) [25-2, {2-[5-methoxy-3-(1-thiazol-2-yl-ethyl)-1H-inden-2-yl]-ethyl}-dimethyl-amine], no more than 250 nM. In turn, `O[C@@H]1CCN(CCC2=C(Cc3cccnn3)c3ccc(F)cc3C2)C1` [19-3] gave a Ki of no more than 250 nM. With `COC(=O)C(C)C1=C(CCN(C)C)Cc2ccccc21` (stereo not shown) [7-3], the Ki was no more than 250 nM. As for `Fc1ccc2c(c1)CC(CCN1CCCC1)=C2Cc1cccnn1` [19-1, 3-[5-fluoro-2-(2-pyrrolidin-1-yl-ethyl)-3H-inden-1-ylmethyl]-pyridazine], the figure is no more than 250 nM; as for `COc1nccnc1[C@@H](C)C1=C(CCN(C)C)Cc2cc(Cl)ccc21` [4-22], no more than 250 nM; as for `COc1ccc2c(c1)CC(CCN1CCCC1)=C2Cc1cccnn1` [21-6], no more than 250 nM. In turn, `Cc1cnc(C(C)C2=C(CCN(C)C)Cc3ccccc32)s1` (stereo not shown) [10-2, dimethyl-(2-{3-[1-(5-methyl-thiazol-2-yl)-ethyl]-1H-inden-2-yl}-ethyl)-amine] displayed a Ki of no more than 250 nM. As for `Cc1csc([C@H](C)C2=C(CCN(C)C)Cc3cc(Cl)ccc32)n1` [22-5], the figure is no more than 250 nM. `COc1ccc2c(c1)CC(CCN1CCC1)=C2C(C)c1cnccn1` (stereo not shown) [21-1, 2-{1-[2-(2-azetidin-1-yl-ethyl)-5-methoxy-3H-inden-1-yl]-ethyl}-pyrazine] registered a Ki of no more than 250 nM. As for `COc1ccc2c(c1)CC(CCN1CCCC1)=C2Cc1cnccn1` [21-5], the figure is no more than 250 nM; as for `CNCCC1=C(C(C)c2cnccn2)c2ccc(C)cc2C1` (stereo not shown) [15-5], no more than 250 nM; as for `CC(C1=C(CCN(C)C)Cc2ccccc21)c1ncc(-c2ccccc2)o1` (stereo not shown) [9-1, dimethyl-(2-{3-[1-(5-phenyl-oxazol-2-yl)-ethyl]-1H-inden-2-yl}-ethyl)-amine], no more than 250 nM. As for `CC(CC1=C(Cc2cnccn2)c2ccccc2C1)N1CCCC1` (stereo not shown) [18-4], the figure is no more than 250 nM; as for `CC(C1=NCCO1)C1=C(CCN(C)C)Cc2ccccc21` (stereo not shown) [13-1, (2-{3-[1-(4,5-dihydro-oxazol-2-yl)-ethyl]-1H-inden-2-yl}-ethyl)-dimethyl-amine], no more than 250 nM; as for `Fc1ccc2c(c1)CC(CCN1CCOCC1)=C2Cc1cccnn1` [19-2], no more than 250 nM. As for `CC(C#N)C1=C(CCN(C)C)Cc2cc(Cl)ccc21` (stereo not shown) [23-1, 2-[5-chloro-2-(2-dimethylamino-ethyl)-3H-inden-1-yl]-propionitrile], the figure is no more than 250 nM; as for `CNCCC1=C([C@@H](C)c2cnccn2)c2ccccc2C1` [15-2, methyl-{2-[3-((R)-1-pyrazin-2-yl-ethyl)-1H-inden-2-yl]-ethyl}-amine], no more than 250 nM; as for `CCC(C1=C(CCN(C)C)Cc2cc(F)ccc21)c1nccnc1OC` (stereo not shown) [4-39], no more than 250 nM. Turning to `CCOc1nccnc1C(C)C1=C(CCN(C)C)Cc2cc(F)ccc21` (stereo not shown) [4-38], the Ki is no more than 250 nM. Compound `COc1ccc2c(c1)CC(CCN1CCC1)=C2[C@@H](C)c1cnccn1` [21-2] returned a Ki of no more than 250 nM.

Compound `CC(CC1=C(Cc2cccnn2)c2ccccc2C1)N1CCCC1` (stereo not shown) [18-5] yielded a Ki of no more than 250 nM.

`CCCOc1cncc(CC2=C(CCN(C)C)Cc3ccccc32)n1` [4-17]: the Ki is no more than 250 nM. On to `CC1CN=C(C(C)C2=C(CCN(C)C)Cc3ccccc32)O1` (stereo not shown) [12-1, dimethyl-(2-{3-[1-(5-methyl-4,5-dihydro-oxazol-2-yl)-ethyl]-1H-inden-2-yl}-ethyl)-amine], for which the inhibition constant (Ki) is no more than 250 nM. As for `Fc1ccc2c(c1)CC(CCN1CCC1)=C2Cc1cccnn1` [20-1, 3-[2-(2-azetidin-1-yl-ethyl)-5-fluoro-3H-inden-1-ylmethyl]-pyridazine], the Ki is no more than 250 nM. `CCOCC(C)C1=C(CCN(C)C)Cc2ccccc21` (stereo not shown) [6-1, {2-[3-(2-ethoxy-1-methyl-ethyl)-1H-inden-2-yl]-ethyl}-dimethyl-amine] gave an inhibitory constant (Ki) of no more than 250 nM. As for `CCCN(C)CCC1=C(Cc2cnccn2)c2ccccc2C1` [16-2], the figure is no more than 250 nM. As for `Cc1nnc(C(C)C2=C(CCN(C)C)Cc3ccccc32)o1` (stereo not shown) [8-1, dimethyl-(2-{3-[1-(5-methyl-[1,3,4]oxadiazol-2-yl)-ethyl]-1H-inden-2-yl}-ethyl)-amine], the figure is no more than 250 nM; as for `CN(CCO)CCC1=C(Cc2cnccn2)c2ccccc2C1` [16-3], no more than 250 nM.

Consider `CC(CC1=C(Cc2cnccn2)c2ccccc2C1)N(C)C` (stereo not shown) [18-1, dimethyl-[1-methyl-2-(3-pyrazin-2-ylmethyl-1H-inden-2-yl)-ethyl]-amine], for which the Ki was no more than 250 nM. Compound `COc1ccc2c(c1)CC(CCN1CCOCC1)=C2Cc1cnccn1` [21-9] displayed a Ki of no more than 250 nM.

`CC(C1=C(CCN(C)C)Cc2ccccc21)c1nnc(-c2ccccc2)s1` (stereo not shown) [14-2] showed a Ki of no more than 250 nM. As to `CCN(C)CCC1=C(Cc2cnccn2)c2ccccc2C1` [16-1, ethyl-methyl-[2-(3-pyrazin-2-ylmethyl-1H-inden-2-yl)-ethyl]-amine], the inhibition constant Ki is no more than 250 nM. As to `c1ccc2c(c1)CC(CCN1CCC1)=C2Cc1cnccn1` [21-10], the Ki is no more than 250 nM. As for `Cc1ccc2c(c1)CC(CCN(C)C)=C2Cc1cccnn1` [4-25], the figure is no more than 250 nM. As for `COc1nccnc1C(C)C1=C(CCN(C)C)Cc2cc(Cl)ccc21` (stereo not shown) [4-20], the figure is no more than 250 nM. `c1ccc2c(c1)CC(CCN1CCCC1)=C2Cc1cnccn1` [21-7]: the Ki was no more than 250 nM. `CNCCC1=C(Cc2cnccn2)c2ccccc2C1` [15-4, methyl-[2-(3-pyrazin-2-ylmethyl-1H-inden-2-yl)-ethyl]-amine] displayed a Ki of no more than 250 nM.

For the compound `CNCCC1=C(C(C)c2nc(C)cs2)c2ccccc2C1` (stereo not shown) [15-6], the Ki was no more than 250 nM. As for `CCOc1nccnc1CC1=C(CCN(C)C)Cc2ccccc21` [4-16], the figure is no more than 250 nM. As for `Cc1cnc(C(C)C2=C(CCN(C)C)Cc3ccccc32)o1` (stereo not shown) [11-1], the figure is no more than 250 nM. As for `CC(C1=C(CCN(C)C)Cc2ccccc21)c1ncc(-c2ccccc2)s1` (stereo not shown) [10-1, dimethyl-(2-{3-[1-(5-phenyl-thiazol-2-yl)-ethyl]-1H-inden-2-yl}-ethyl)-amine], the figure is no more than 250 nM.

Compound `CC(C1=C(CCN(C)C)Cc2cc(Cl)ccc21)c1nccs1` (single isomer, unassigned) [23-2, {2-[6-chloro-3-(1-thiazol-2-yl-ethyl)-1H-inden-2-yl]-ethyl}-dimethyl-amine] returned a Ki of no more than 250 nM. As for `CN(C)CCC1=C(C(C)(C)c2cnccn2)c2ccccc2C1` [4-12], the figure is no more than 250 nM; as for `CC(C1=C(CCN(C)C)Cc2ccccc21)c1ccncn1` (stereo not shown) [4-2], no more than 250 nM.

`c1cnnc(CC2=C(CCN3CCCC3)Cc3ccccc32)c1` [21-8] showed an inhibition constant Ki of no more than 250 nM. As for `Cc1nnc(C(C)C2=C(CCN(C)C)Cc3ccccc32)s1` (stereo not shown) [14-1, dimethyl-(2-{3-[1-(5-methyl-[1,3,4]thiadiazol-2-yl)-ethyl]-1H-inden-2-yl}-ethyl)-amine], the figure is no more than 250 nM; as for `O[C@H]1CCN(CCC2=C(Cc3cccnn3)c3ccc(F)cc3C2)C1` [19-4], no more than 250 nM; as for `CC(C(=O)OC(C)(C)C)C1=C(CCN(C)C)Cc2ccccc21` (stereo not shown) [7-1, 2-[2-(2-dimethylamino-ethyl)-3H-inden-1-yl]-propionic acid tert-butyl ester], no more than 250 nM.

Turning to `COc1nccnc1[C@H](C)C1=C(CCN(C)C)Cc2cc(Cl)ccc21` [4-23], the Ki was no more than 250 nM.
